Key:
Assay type in all cases: in vivo
[1] = test system: male Sprague-Dawley rats; assay: Cyclosporine-induced nephrotoxicity; settings: for extracellular fluid volumes (ECF): second study, control 27.6±1.9, CsA and vehicle 27.5±1.7
Protocol: In the first study, male Sprague-Dawley rats (n=43) with a weight range of 240-290 g at the initiation of the cyclosporine A (CsA) treatment were divided into 4 weight matched groups. The groups were as follows: (1) Control: no CsA, no EX-2, treatment only with CsA vehicle (PBS) PO and EX-2 vehicle (also PBS) IP; (2) CsA: treatment with CsA (50 mg/kg in PBS administered PO daily at 0830 hr for 9 days) and IP injections of PBS (Ex-2 vehicle); (3) CsA and 50 μg: CsA treatment identical to group 2 with the addition of EX-2 (50 μg/kg IP administered daily at 0800 and 1700 hr in EX-2 vehicle); and (4) CsA and 500 μg: CsA treatment identical to groups 2 and 3, and EX-2 treatment protocol similar to group 3 except that the dose of EX-2 was 500 μg/kg BW. After deep anesthesia was assured, the rats were cannulated in the trachea (PE 240) jugular vein, femoral artery, and bladder (PE 50 for the previous 3 cannulations).After cannulation, infusion of ^3 H-inulin was initiated 50 min prior to the measurement period to assess glomerular filtration rate, renal blood flow and plasma flow. Renal blood flow was determined by the inulin extraction technique. At the end of the study, the kidneys were removed for histological analysis.
In the second study, male Sprague-Dawley rats (n=31) with a weight range of 240-290 g at the time of initiation of the cyclosporine treatment were divided into 4 weight-matched groups. The time course and protocol of this study matched the first study with the following exceptions: (1) The daily dose of CsA was reduced to 30 mg/kg and was administered subcutaneously (SC) and (2) the 50 μ/kg dose of EX-2 was substituted with a twice daily dose of 200 μg/kg. The 500 μg/kg dose of EX-2 was repeated in this study. Renal hemodynamics were determined and extracellular fluid volumes were also assessed.
In the second studio, where extracellular fluid volumes (ECF) were measured, there were no differences in ECF among control and treatment groups (27.6±1.9 in control, 27.5±1.7 in CsA and vehicle, 26.2±0.9 in CsA+200 μg/kg EX-2, and 25.7±1.4% in CsA+500 μg/kg EX-2).
The results from the two experiments are shown in FIGS. 1a and 1b and provide evidence that a cytokine restraining peptide of the present invention reduces cyclosporine-induced nephrotoxicity and the damage caused thereby.

[2] = test system: TNF-α; assay: Reduction of LPS-induced TNF levels in mice (IP dosing); settings: 30 μg/mouse IP before LPS 5 mg/kg IP; vs untreated control mice
Protocol: Balb/c female mice weighing approximately 20 g were placed into two groups, a control group and a treated group. Five mg/kg of LPS in 0.9% saline was administered by intraperitoneal (IP) injection into the control mice. Mice in the treated group were first injected IP with 30 μg EX-2 or 150 μg EX-3 in saline, then, one mn after EX-2 or EX-3 was administered, the mice received LPS as described for the control group.
Blood samples were collected from the orbital sinus of treated and control mice at various times up to four hr after LPS was administered. The plasma was separated by centrifugation at 3000×g for 5 min, then diluted with four volumes of 1× phosphate buffer saline (pH 7.4) containing 1% bovine serum albumin. A 100 μl sample of serum was assayed by ELISA for TNF-α (Genzyme; Cambridge Mass.).
The mean (±SEM) TNF-α level in six mice from each group was determined and the percent reduction in TNF levels was calculated.

[3] = test system: adult female Balb/c mice; assay: LPS-induced lethality (IP dosing); settings: 11 × 300 μg/mouse IP (3.3 mg), every 4 hr; 0.6 mg LPS; vs control mice
Protocol: These experiments were performed based on information reported by Rivier et al., Endocrinology 125:2800-2805 (1989), which is incorporated herein by reference. Adult female Balb/c mice were provided food and water ad libitum. Mice were injected IP every four hr for 40 hr with 30 to 300 μg EX-2, EX-3 or EX-4 in 0.2 ml saline (treated group) or with 0.2 ml saline, alone (control group) (10 mice per group). Immediately following the first injection, 0.6 mg LPS endotoxin in 0.2 ml saline was administered to each mouse. Following LPS injection, EX-2 or saline was administered to the treated mice or the control mice, respectively, every 4 hr for 36 hr.

Substance: Ac-Nle-Gln-His-(D)Phe-Arg-(D)Trp-Gly-NH2 [EX-2]
- changes in ECF as a result of treatment ([1]; CsA-treated rats): no changes
- renal blood flow ([1]; CsA-treated rats): not different from control
- urinary protein excretion compared to CsA-treated rats ([1]; CsA-treated rats): did not increase
- urinary protein excretion normalized to glomerular filtration rate ([1]; CsA-treated rats): trend to decreased
- GFR compared to CsA and vehicle controls ([1]; both studies, CsA-treated rats): significantly increased
- extracellular fluid volumes (ECF) ([1]; CsA 30 mg/kg SC + 200 μg/kg EX-2 twice daily): 26.2±0.9%
- extracellular fluid volumes (ECF) ([1]; CsA 30 mg/kg SC + 500 μg/kg EX-2 twice daily): 25.7±1.4%
- Reduction in TNF levels [2]: 50%
- Inhibition of LPS-induced Lethality (increase in survival) [3]: 83%

— US5760001A, “Cytokine restraining agents and methods of use in pathologies and conditions associated with altered cytokine levels” (Trega Biosciences, Inc., priority 1995, dated 1998)
